Columns and labels:
Set-up in all cases: scale not given: the % may be the effect or the level left
[1] = test system: Moloney murine leukemia virus reverse transcriptase; experiment: Compound was evaluated for inhibition of against moloney leukemia reverse transcriptase at concentration 0.08 mg/mL
[2] = test system: Moloney murine leukemia virus reverse transcriptase; experiment: Compound was evaluated for inhibition of against moloney leukemia reverse transcriptase at concentration 0.01 mg/mL
[3] = test system: Moloney murine leukemia virus reverse transcriptase; experiment: Compound was evaluated for inhibition of against moloney leukemia reverse transcriptase at concentration 0.04 mg/mL
[4] = test system: Moloney murine leukemia virus reverse transcriptase; experiment: Compound was evaluated for inhibition of against moloney leukemia reverse transcriptase at concentration 0 mg/ml
[5] = test system: Moloney murine leukemia virus reverse transcriptase; experiment: Compound was evaluated for inhibition of against moloney leukemia reverse transcriptase at concentration 0.02 mg/mL
[6] = test system: Moloney murine leukemia virus reverse transcriptase; experiment: Compound was evaluated for inhibition of against moloney leukemia reverse transcriptase at concentration 0.1 mg/mL

Control [1] | Control [2] | Control [3] | Control [4] | Control [5] | Control [6] | SMILES
1% | 78% | 3% | 100% | 30% | 2% | Cn1c2ccc(Cl)cc2c2cc3ccccc3c[n+]21
1% | 48% | 3% | 100% | 30% | 2% | Cn1c2ccccc2c2cc3ccccc3c[n+]21

From ChEMBL document CHEMBL1151503, “Synthesis of novel ellipticine analogues and their inhibition of Moloney leukaemia reverse transcriptase” (Bioorg Med Chem Lett, 1996)
